A short description of one data set: cells. The data set is classed as cell-based, Ebolavirus. Conditions: Orthoebolavirus, HeLa, 4.5 h.
In data set [1] the target is Procathepsin L (Homo sapiens) (UniProt P07711). Conditions: at 10 µM.
Data set [2] in a line: in vitro. The conditions noted are these: human, hela.
Data set [3] in a line: in vitro. Conditions: human, hela. The source holds these as a separate data set.
Another data set deals with Ebolavirus. Briefly: Antiviral activity against Ebolavirus Mayinga infected in African green monkey Vero E6 cells after 72 hrs by eGFP assay. It is filed as functional. The conditions noted are these: Orthoebolavirus, Vero C1008, 72 h.
Data set [4] concerns the target Cathepsin B (Homo sapiens) (UniProt P07858). Briefly: Inhibition of recombinant cathepsin B (unknown origin) at 10 uM using Ac-RR-AFC as substrate preincubated for 29 mins followed by substrate addition by fluorescence-based assay.

Calls of active or inactive are those of the source. The rule behind the calls is not given here.

Results on 23 compounds are retold here after ChEMBL document CHEMBL4043309, “Computer-Aided Discovery and Characterization of Novel Ebola Virus Inhibitors” (J Med Chem, 2018).

Chain of Procathepsin L (Homo sapiens) (P07711 114-333 limits assumed): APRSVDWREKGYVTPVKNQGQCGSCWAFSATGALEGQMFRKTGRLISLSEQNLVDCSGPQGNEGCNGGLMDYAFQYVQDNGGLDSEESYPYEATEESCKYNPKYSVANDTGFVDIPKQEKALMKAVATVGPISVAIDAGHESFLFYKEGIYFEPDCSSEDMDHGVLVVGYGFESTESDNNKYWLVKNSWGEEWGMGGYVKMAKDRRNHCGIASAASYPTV

As to `CN1[C@@H]2CC[C@H]1C[C@@H](OC1c3ccccc3CCc3ccccc31)C2` [DEPTROPINE], the IC50 in the data set “cells” turned out to be 6.58 µM. Moreover, in data set [1], the inhibition entry was “Active”. Also, the selectivity ratio in the data set “in vitro [2]” and in the data set “in vitro [3]” was 76 in each case.

As for `COc1cc2nc(N3CCCN(C)CC3)nc(NC3CCN(Cc4ccccc4)CC3)c2cc1OC`, the IC50 was 0.966 µM in the data set “cells” and 1 to 10 µM in the data set with Ebolavirus. The selectivity ratio in “in vitro [2]” and in “in vitro [3]” was 45 in each case.

For `CN1CCN(CCCN2c3ccccc3Sc3ccc(S(=O)(=O)N(C)C)cc32)CC1` [THIOPROPERAZINE], the IC50 in the data set “cells” came out at 4.32 µM.

In the data set “cells”, `COc1cc2c(Oc3ccc4[nH]c(C)cc4c3F)ncnc2cc1OCCCN1CCCC1` [CEDIRANIB] had an IC50 of 7.67 µM. Moreover, the selectivity ratio in “in vitro [2]” and in “in vitro [3]” was 65 throughout.

In the data set “cells”, `CC(=O)N(C)C1(c2ccccc2)CCN(CCC[C@]2(c3ccc(Cl)c(Cl)c3)CCCN(C(=O)c3ccccc3)C2)CC1` [OSANETANT] yielded a 50% inhibitory concentration (IC50) of 9.65 µM. In addition, the selectivity ratio in “in vitro [2]” and in the data set “in vitro [3]” was 52 in each case.

`CC/C(=C(\c1ccc(O)cc1)c1ccc(OCCNC)cc1)c1ccccc1` [ENDOXIFEN] registered an IC50 in “cells” of 3.05 µM. Moreover, the selectivity ratio in “in vitro [2]” and in the data set “in vitro [3]” was 164 in each case.

For `CC(C)(C)c1ccc(C(=O)CCCN2CCC(OC(c3ccccc3)c3ccccc3)CC2)cc1`, in data set [1], the inhibition result was “Active”.

`CCN(CC)CCCN(c1ccccc1)C1Cc2ccccc2C1` [APRINDINE] registered a half-inhibitory concentration (IC50) in “cells” of 7.69 µM.

Regarding `CC[C@]1(O)C[C@@H]2CN(CCc3c([nH]c4ccccc34)[C@@](C(=O)OC)(c3cc4c(cc3OC)N(C)[C@H]3[C@@](O)(C(=O)OC)[C@H](OC(C)=O)[C@]5(CC)C=CCN6CC[C@]43[C@@H]65)C2)C1` [VINBLASTINE], in the data set “cells”, a half-maximal effect (EC50) was put at 0.048 µM.

Consider `CNC1CCC(N(Cc2cccc(-c3ccncc3)c2)C(=O)c2sc3c(F)ccc(F)c3c2Cl)CC1` (stereo unspecified), for which, in the data set “cells”, the IC50 is 7.67 µM. For the same compound, the selectivity ratio in “in vitro [2]” and in “in vitro [3]” was 65 throughout.

The compound `COc1ccc2cc1Oc1ccc(cc1)C[C@H]1c3cc(c(OC)cc3CCN1C)Oc1c(OC)c(OC)cc3c1[C@H](C2)N(C)CC3` [FANCHININ] registered an IC50 in the data set “cells” of 2.16 µM. Also, the selectivity ratio in “in vitro [2]” and in “in vitro [3]” was 22 in each case.

In the data set “cells”, `COc1ccc2cc1Oc1ccc(cc1)C[C@H]1c3c(cc4c(c3Oc3cc5c(cc3OC)CCN(C)[C@@H]5C2)OCO4)CCN1C` [CEPHARANTHINE] came in with an IC50 of 1.53 µM.

For `COc1cc(Nc2c(C#N)cnc3cc(OCCCN4CCN(C)CC4)c(OC)cc23)c(Cl)cc1Cl` [BOSUTINIB], the IC50 in “cells” stood at 3.85 µM.

In the case of `CCCCc1oc2ccc(NS(C)(=O)=O)cc2c1C(=O)c1ccc(OCCCN(CCCC)CCCC)cc1` [DRONEDARONE], it took 2.2 µM to reach half-maximal inhibition in the data set “cells” (IC50).

For the compound `Nc1ncnc2c1c(-c1cccc(OCc3ccccc3)c1)cn2[C@H]1C[C@H](CN2CCCC2)C1`, the 50% inhibitory concentration (IC50) is 3.05 µM in the data set “cells” and 1 to 10 µM in the data set with Ebolavirus. In addition, the selectivity ratio in “in vitro [2]” and in the data set “in vitro [3]” was 13 each time.

For `Cc1[nH]c2c(CN3CC(CO)C(CN4CCCC4)C3)cccc2c1C` (stereo unspecified), the 50% inhibitory concentration (IC50) in the data set “cells” was 6.09 µM; in the data set with Ebolavirus it was 1 to 10 µM. Besides, the selectivity ratio in the data set “in vitro [2]” and in “in vitro [3]” was 82 in each case.

Regarding `CC[C@]1(O)C[C@@H]2CN(CCc3c([nH]c4ccccc34)[C@@](C(=O)OC)(c3cc4c(cc3OC)N(C)[C@H]3[C@@](O)(C(N)=O)[C@H](O)[C@]5(CC)C=CCN6CC[C@]43[C@@H]65)C2)C1` [VINDESINE], inhibition in the data set “cells” was half-maximal at 0.272 µM (IC50). Moreover, the selectivity ratio in the data set “in vitro [2]” and in “in vitro [3]” was 1840 in each case.

Take `CCC1=C[C@@H]2CN(C1)Cc1c([nH]c3ccccc13)[C@@](C(=O)OC)(c1cc3c(cc1OC)N(C)[C@H]1[C@@](O)(C(=O)OC)[C@H](OC(C)=O)[C@]4(CC)C=CCN5CC[C@]31[C@@H]54)C2` [VINORELBINE]: the IC50 in the data set “cells” stood at 0.066 µM.

Take `COCC(=O)O[C@]1(CCN(C)CCCc2nc3ccccc3[nH]2)CCc2cc(F)ccc2[C@@H]1C(C)C` [MIBEFRADIL]: the IC50 in the data set “cells” stood at 4.32 µM.

Regarding `Cc1ccc(CN2CCCN(C)C3(CCN(C)CC3)C2)cc1C`, the IC50 is 6.83 µM in “cells” and 1 to 10 µM with Ebolavirus. Further, the selectivity ratio in “in vitro [2]” and in the data set “in vitro [3]” was 73 each time.

For the compound `CN(C)c1ccccc1CN1CCCN(Cc2ccccc2N(C)C)C1c1ccncc1`, in “cells”, the IC50 stood at 6.83 µM. The inhibition entry in data set [4] and in data set [1] was “Active” throughout. For the same compound, the selectivity ratio in the data set “in vitro [2]” and in the data set “in vitro [3]” was 73 throughout.

In the data set “cells”, `CCC(=C(c1ccc(O)cc1)c1ccc(OCCN(C)C)cc1)c1ccccc1` registered a half-inhibitory concentration (IC50) of 1.96 µM. The selectivity ratio in the data set “in vitro [2]” and in the data set “in vitro [3]” was 123 throughout.

In the data set “cells”, `CC[C@]1(O)C[C@H]2CN(CCc3c([nH]c4ccccc34)[C@@](C(=O)OC)(c3cc4c(cc3OC)N(C=O)[C@H]3[C@@](O)(C(=O)OC)[C@H](OC(C)=O)[C@]5(CC)C=CCN6CC[C@]43[C@@H]65)C2)C1` [VINCRISTINE] returned a concentration for half-maximal inhibition (IC50) of 0.141 µM.

As a reminder, the IC50 is the concentration needed to halve the response being measured. What is called EC50 is the concentration needed to bring the measured effect to its halfway point.
